The text below walks through data of patent US20240327417A1, “HETEROCYCLIC COMPOUNDS” (BeiGene Switzerland GmbH, priority 2021, published 2024).

In test [1] the target is T1, Full length DGKα (D21-10BG, SignalChem) (Homo sapiens, UniProt P23743).
T1 construct: Full length DGKα (D21-10BG, SignalChem); purchased SignalChem D21-10BG
In words: Biochemical DGK IC50 assay (ADP-Glo, lipid micelle substrate), DGKα. Conditions: 7.5 nM enzyme, 140 μM ATP, 80 μM DAG, 1 hour preincubation, 1 hour reaction, room temperature, read-out: IC50s for DGKα. Put shortly: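 Full-length enzyme was assayed by ADP-Glo on DAG/PS lipid micelles at room temperature in HEPES/MgCl2/CaCl2 buffer with BSA, Na3VO4 and Tween-20, using a 1 h reaction and luminescence read-out.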

Test [2] addresses T2, Full length DGKζ (in-house protein M1-V929) (Homo sapiens, UniProt Q13574).
T2 construct: His (N); TEV cleavage site (N); made in house; host or cells: Sf9 insect cells (baculovirus, Bac-to-Bac)
Description: Biochemical DGK IC50 assay (ADP-Glo, lipid micelle substrate), DGKζ. Conditions: 0.5 nM enzyme, 140 μM ATP, 80 μM DAG, 1 hour preincubation, 1 hour reaction, room temperature, read-out: IC50s for DGKζ. Put shortly: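 In-house full-length human DGKζ, baculovirus-expressed in Sf9 cells, was assayed with a DAG/PS lipid micelle substrate at room temperature. Buffer was 50 mM HEPES, 10 mM MgCl2, 0.01% BSA, 0.1 mM Na3VO4, 0.005% Tween-20, 0.01 mM CaCl2, with final compound 1.55˜10000 nM or 23.3˜150000 nM.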

T1 sequence (P23743 whole entry): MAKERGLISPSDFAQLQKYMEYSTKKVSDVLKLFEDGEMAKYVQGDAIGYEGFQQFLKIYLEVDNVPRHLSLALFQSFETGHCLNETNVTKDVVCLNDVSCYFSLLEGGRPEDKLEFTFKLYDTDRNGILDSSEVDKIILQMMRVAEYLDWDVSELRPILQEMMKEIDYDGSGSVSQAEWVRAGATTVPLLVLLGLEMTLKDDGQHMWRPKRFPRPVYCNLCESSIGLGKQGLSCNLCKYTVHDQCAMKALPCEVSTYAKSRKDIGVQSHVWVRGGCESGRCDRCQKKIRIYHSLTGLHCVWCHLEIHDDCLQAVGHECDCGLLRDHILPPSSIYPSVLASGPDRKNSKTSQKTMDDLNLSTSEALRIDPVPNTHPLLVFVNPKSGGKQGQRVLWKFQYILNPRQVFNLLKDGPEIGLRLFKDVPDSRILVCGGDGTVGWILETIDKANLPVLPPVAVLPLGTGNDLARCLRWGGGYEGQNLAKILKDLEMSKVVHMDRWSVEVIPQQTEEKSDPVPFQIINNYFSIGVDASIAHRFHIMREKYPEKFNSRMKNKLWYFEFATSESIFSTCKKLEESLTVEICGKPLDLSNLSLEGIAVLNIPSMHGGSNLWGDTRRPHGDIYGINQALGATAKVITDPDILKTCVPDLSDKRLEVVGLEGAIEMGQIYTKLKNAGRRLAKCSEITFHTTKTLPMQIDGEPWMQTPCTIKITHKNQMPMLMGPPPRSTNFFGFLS
T2 sequence (Q13574 1-929 isoform Q13574-4): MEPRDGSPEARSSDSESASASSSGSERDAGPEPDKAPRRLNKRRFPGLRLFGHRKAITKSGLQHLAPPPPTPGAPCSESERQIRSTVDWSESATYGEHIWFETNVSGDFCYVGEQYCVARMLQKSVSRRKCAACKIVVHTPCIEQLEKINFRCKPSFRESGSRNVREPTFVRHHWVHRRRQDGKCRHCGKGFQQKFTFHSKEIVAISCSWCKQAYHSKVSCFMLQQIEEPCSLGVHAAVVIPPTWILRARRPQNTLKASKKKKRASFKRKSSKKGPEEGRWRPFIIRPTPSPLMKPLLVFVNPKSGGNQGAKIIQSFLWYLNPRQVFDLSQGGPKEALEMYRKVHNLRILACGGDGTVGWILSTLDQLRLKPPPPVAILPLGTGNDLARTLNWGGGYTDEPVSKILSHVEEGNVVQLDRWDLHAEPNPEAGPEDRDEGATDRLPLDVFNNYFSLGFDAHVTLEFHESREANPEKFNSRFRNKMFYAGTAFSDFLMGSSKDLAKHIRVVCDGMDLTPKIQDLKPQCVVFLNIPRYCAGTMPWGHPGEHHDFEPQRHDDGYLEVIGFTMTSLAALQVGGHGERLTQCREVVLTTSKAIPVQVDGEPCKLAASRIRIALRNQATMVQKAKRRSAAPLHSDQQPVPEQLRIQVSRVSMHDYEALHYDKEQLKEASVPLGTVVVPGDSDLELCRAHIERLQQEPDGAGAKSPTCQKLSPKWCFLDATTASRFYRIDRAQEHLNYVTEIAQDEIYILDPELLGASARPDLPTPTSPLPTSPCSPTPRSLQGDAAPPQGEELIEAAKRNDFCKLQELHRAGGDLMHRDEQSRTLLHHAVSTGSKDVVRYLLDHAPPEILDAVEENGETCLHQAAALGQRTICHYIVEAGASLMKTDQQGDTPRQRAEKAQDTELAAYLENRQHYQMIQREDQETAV

On to `CCC(c1ccc2nc(C)sc2n1)N1C[C@H](CC)N(c2cc(=O)n(C)n3cc(CC#N)nc23)C[C@H]1C` (single isomer, unassigned) [Compound A98b], for which the results for the IC50 in test [1] and in test [2] were 39 nM and 45 nM, respectively.
For `CC[C@H]1CN(C(C)c2ccc(C(F)(F)F)cc2)[C@H](CC)CN1c1cc(=O)n(C)n2cc(CC#N)nc12` (single isomer, unassigned) [Compound A91a], in that order: 155 nM and 73 nM.
For `CC[C@H]1CN(C(C)c2ccc(C3CC3)nc2)[C@H](CC)CN1c1cc(=O)n(C)n2cc(CC#N)nc12` (single isomer, unassigned) [Compound A37b], in that order: 260 nM and 538 nM.
For `Cc1cnc2ccc(C(C)N3C[C@H](C)N(c4cc(=O)n(C)n5cc(CC#N)nc45)C[C@H]3C)cc2n1` (single isomer, unassigned) [Compound A2b], in that order: 11600 nM and 11 nM.
For the compound `CC#CCc1cn2c(n1)c(N1C[C@@H](CC)N(C(C)c3ccc4nc(C)sc4n3)C[C@@H]1CC)cc(=O)n2C` (single isomer, unassigned) [Compound A115b], the results for the IC50 in test [1] and in test [2] were 2.7 nM and 49 nM, respectively.
For `[2H]C([2H])([2H])c1nc2ccc(C(C)N3C[C@H](CC)N(c4cc(=O)n(C([2H])([2H])[2H])n5cc(CC#N)nc45)C[C@H]3CC)cc2s1` (single isomer, unassigned) [Compound A97b], in that order: 1160 nM and 1150 nM.
For `CC[C@H]1CN(C(C)c2ccc(OC(C)C)nc2)[C@H](CC)CN1c1cc(=O)n(C)n2cc(CC#N)nc12` (single isomer, unassigned) [Compound A45b], in that order: 835 nM and 1060 nM.
For `CC[C@@H]1CN(c2c(C#N)c(=O)n(C)n3cc(CC#N)nc23)[C@@H](C)CN1C(C)c1ccc2nc(C)sc2n1` (single isomer, unassigned) [Compound A113a], in that order: 185 nM and 118 nM.
Take `CC[C@@H]1CN(c2cc(=O)n(C)n3cc(CC#N)nc23)[C@@H](C)CN1C(C)c1ccc(C(F)(F)F)cc1F` (single isomer, unassigned) [Compound A17b]: the IC50 is 823 nM in test [1] and 4720 nM in test [2].
With `CCC(c1ccc(C(F)(F)F)cc1)N1C[C@H](CC)N(c2cc(=O)n(C)n3cc(CC#N)nc23)C[C@H]1CC` (single isomer, unassigned) [Compound A77b], the IC50 in test [1] is 454 nM; in test [2], 1940 nM.
In the case of `CC[C@H]1CN(C(C)c2ccc3nccnc3c2)[C@H](CC)CN1c1cc(=O)n(C)n2cc(COC)nc12` (single isomer, unassigned) [Compound A8a], the IC50 in test [1] amounted to 1310 nM; in test [2] it was 25 nM.
With `CC[C@H]1CN(C(C)c2ccc(C3CC3(F)F)nc2)[C@H](CC)CN1c1cc(=O)n(C)n2cc(CC#N)nc12` (single isomer, unassigned) [Compound A70a], the IC50 in test [1] was determined as 102 nM; in test [2] it was 244 nM.
Regarding `[2H]C([2H])([2H])n1c(=O)cc(N2C[C@@H](CC)N(C(C)c3ccc4nc(C)sc4c3)C[C@@H]2CC)c2nc(CC#N)cn21` (single isomer, unassigned) [Compound A94b], the values for the IC50 in test [1] and in test [2] were 3790 nM and 1150 nM, respectively.
For `CC[C@H]1CN(C(C)c2ccc3nc(C)sc3n2)[C@H](CC)CN1c1c(Br)c(=O)n(C)n2cc(CC#N)nc12` (stereo partly drawn) [Compound A83, 2-(7-bromo-8-((2S,5R)-2,5-diethyl-4-(1-(2-methylthiazolo[5,4-b]pyridin-5-yl)ethyl)piperazin-1-yl)-5-methyl-6-oxo-5,6-dihydroimidazo[1,2-b]pyridazin-2-yl)acetonitrile], in that order: 42600 nM and more than 10000 nM.
Take `CC[C@H]1CN(C(C)c2ccc3ncsc3c2F)[C@H](CC)CN1c1cc(=O)n(C)n2cc(CC#N)nc12` (single isomer, unassigned) [Compound A62a]: the IC50 is 105 nM in test [1] and 8.5 nM in test [2].
For `CC(c1ccc2c(c1)OC(F)(F)O2)N1C[C@H](C)N(c2cc(=O)n(C)n3cc(CC#N)nc23)C[C@H]1C` (stereo partly drawn) [Compound A31, 2-(8-((2S,5R)-4-(1-(2,2-difluorobenzo[d][1,3]dioxol-5-yl)ethyl)-2,5-dimethylpiperazin-1-yl)-5-methyl-6-oxo-5,6-dihydroimidazo[1,2-b]pyridazin-2-yl)acetonitrile], in that order: 1970 nM and 1130 nM.
For `CC#CCc1cn2c(n1)c(N1C[C@@H](CC)N(C(C)c3ccc4nc(C)sc4c3)C[C@@H]1CC)cc(=O)n2C` (single isomer, unassigned) [Compound A68a], in that order: 26 nM and 104 nM.
Regarding `CC[C@H]1CN(C(C)c2ccc(C3(F)CC3)cc2)[C@H](CC)CN1c1cc(=O)n(C)n2cc(CC#N)nc12` (stereo partly drawn) [Compound A88, 2-(8-((2S,5R)-2,5-diethyl-4-(1-(4-(1-fluorocyclopropyl)phenyl)ethyl)piperazin-1-yl)-5-methyl-6-oxo-5,6-dihydroimidazo[1,2-b]pyridazin-2-yl)acetonitrile], the results for the IC50 in test [1] and in test [2] were 72 nM and 39 nM, respectively.
Turning to `CC[C@H]1CN(C(C)c2ccc3nccnc3c2)[C@H](CC)CN1c1cc(=O)n(C)n2cc(CC#N)nc12` (single isomer, unassigned) [Compound A14b], the IC50 turned out to be 1420 nM in test [1] and 358 nM in test [2].
For `CC(c1ccc2c(c1)OCCO2)N1C[C@H](C)N(c2cc(=O)n(C)n3cc(CC#N)nc23)C[C@H]1C` (stereo partly drawn) [Compound A24, 2-(8-((2S,5R)-4-(1-(2,3-dihydrobenzo[b][1,4]dioxin-6-yl)ethyl)-2,5-dimethylpiperazin-1-yl)-5-methyl-6-oxo-5,6-dihydroimidazo[1,2-b]pyridazin-2-yl)acetonitrile], in that order: 2870 nM and 230 nM.
For `CC[C@H]1CN(C(C)c2ccc3nc(C)sc3c2)[C@H](CC)CN1c1cc(=O)n(C)n2cc(C=NOC)nc12` (single isomer, unassigned) [Compound A123d], in that order: 749 nM and more than 10000 nM.
For `CC[C@@H]1CN(c2cc(=O)n(C)n3cc(CC#N)nc23)[C@@H](C)CN1C(C)c1ccc2nc(C)sc2c1F` (single isomer, unassigned) [Compound A63b], in that order: 5780 nM and 1790 nM.
In the case of `CC[C@H]1CN(C(C)c2ccc3nc(C)sc3n2)[C@H](CC)CN1c1cc(=O)n(C)n2cc(CC#N)nc12` (single isomer, unassigned) [Compound A58a], the IC50 is 1220 nM in test [1] and 2160 nM in test [2].
For `CC[C@H]1CN(C(C)c2ccc3scnc3c2)[C@H](CC)CN1c1cc(=O)n(C)n2cc(CC#N)nc12` (stereo partly drawn) [Compound A65, 2-(8-((2S,5R)-4-(1-(benzo[d]thiazol-5-yl)ethyl)-2,5-diethylpiperazin-1-yl)-5-methyl-6-oxo-5,6-dihydroimidazo[1,2-b]pyridazin-2-yl)acetonitrile], in that order: 36 nM and 18 nM.
For `CC(c1ccc2c(c1)OC(C)(C)CO2)N1C[C@H](C)N(c2c(C#N)c(=O)n(C)n3cc(CC#N)nc23)C[C@H]1C` (mixture of isomers) [Compound A27, 2-(cyanomethyl)-8-((2S,5R)-4-(1-(3,3-dimethyl-2,3-dihydrobenzo[b][1,4]dioxin-6-yl)ethyl)-2,5-dimethylpiperazin-1-yl)-5-methyl-6-oxo-5,6-dihydroimidazo[1,2-b]pyridazine-7-carbonitrile], in that order: 858 nM and 10 nM.
For `CC[C@H]1CN(C(CCOC)c2ccc3nc(C)sc3c2)[C@H](CC)CN1c1cc(=O)n(C)n2cc(CC#N)nc12` (single isomer, unassigned) [Compound A102a], in that order: 378 nM and 46 nM.
For `CC[C@@H]1CN(c2cc(=O)n(C)n3cc(CC#N)nc23)[C@@H](C)CN1C(C)c1ccc(C(F)(F)F)cc1F` (single isomer, unassigned) [Compound A17a], the IC50 in test [1] turned out to be 171 nM; in test [2], 108 nM.
For `CCc1nc2ccc(C(C)N3C[C@H](CC)N(c4cc(=O)n(C)n5cc(CC#N)nc45)C[C@H]3CC)cc2s1` (single isomer, unassigned) [Compound A100a], in that order: 297 nM and 19 nM.
As to `CC#CCc1cn2c(n1)c(N1C[C@@H](CC)N(C(C)c3ccc4ncsc4c3F)C[C@@H]1CC)cc(=O)n2C` (single isomer, unassigned) [Compound A117b], the IC50 in test [1] turned out to be 535 nM; in test [2], 2000 nM.
For `CC#CCc1cn2c(n1)c(N1C[C@@H](CC)N(C(C)c3ccc4nc(C)sc4c3)C[C@@H]1C)cc(=O)n2C` (stereo partly drawn) [Compound A69, 2-(but-2-yn-1-yl)-8-((2S,5R)-5-ethyl-2-methyl-4-(1-(2-methylbenzo[d]thiazol-6-yl)ethyl)piperazin-1-yl)-5-methylimidazo[1,2-b]pyridazin-6(5H)-one], in that order: 263 nM and 1440 nM.
